For the experiment, the target named is T1, hFASN enzyme (full length) (Homo sapiens, UniProt P49327).
T1 construct: 10 μL hFASN enzyme (full length, 300 ng, purified in house); made in house
Put plainly: Fatty Acid Synthase (FASN) inhibition scintillation proximity assay. It counts as biochemical. To be noted: for inhibition at 10 µM: read-out: Human FASN % inhibition @ 10 μM, 10 μM test compound; for IC50: read-out: Human FASN pIC50 (converted). The essentials: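 Compounds at 0.01–30 μM were mixed with 300 ng purified full-length enzyme in 100 mM KH2PO4 pH 7.5, 1 mM DTT. Substrates ³H-acetyl-CoA and malonyl-CoA were then converted, and bead addition stopped the reaction. Signal was normalised to low and high plate controls and fitted by 4-parameter nonlinear regression.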

T1 sequence (P49327 whole entry): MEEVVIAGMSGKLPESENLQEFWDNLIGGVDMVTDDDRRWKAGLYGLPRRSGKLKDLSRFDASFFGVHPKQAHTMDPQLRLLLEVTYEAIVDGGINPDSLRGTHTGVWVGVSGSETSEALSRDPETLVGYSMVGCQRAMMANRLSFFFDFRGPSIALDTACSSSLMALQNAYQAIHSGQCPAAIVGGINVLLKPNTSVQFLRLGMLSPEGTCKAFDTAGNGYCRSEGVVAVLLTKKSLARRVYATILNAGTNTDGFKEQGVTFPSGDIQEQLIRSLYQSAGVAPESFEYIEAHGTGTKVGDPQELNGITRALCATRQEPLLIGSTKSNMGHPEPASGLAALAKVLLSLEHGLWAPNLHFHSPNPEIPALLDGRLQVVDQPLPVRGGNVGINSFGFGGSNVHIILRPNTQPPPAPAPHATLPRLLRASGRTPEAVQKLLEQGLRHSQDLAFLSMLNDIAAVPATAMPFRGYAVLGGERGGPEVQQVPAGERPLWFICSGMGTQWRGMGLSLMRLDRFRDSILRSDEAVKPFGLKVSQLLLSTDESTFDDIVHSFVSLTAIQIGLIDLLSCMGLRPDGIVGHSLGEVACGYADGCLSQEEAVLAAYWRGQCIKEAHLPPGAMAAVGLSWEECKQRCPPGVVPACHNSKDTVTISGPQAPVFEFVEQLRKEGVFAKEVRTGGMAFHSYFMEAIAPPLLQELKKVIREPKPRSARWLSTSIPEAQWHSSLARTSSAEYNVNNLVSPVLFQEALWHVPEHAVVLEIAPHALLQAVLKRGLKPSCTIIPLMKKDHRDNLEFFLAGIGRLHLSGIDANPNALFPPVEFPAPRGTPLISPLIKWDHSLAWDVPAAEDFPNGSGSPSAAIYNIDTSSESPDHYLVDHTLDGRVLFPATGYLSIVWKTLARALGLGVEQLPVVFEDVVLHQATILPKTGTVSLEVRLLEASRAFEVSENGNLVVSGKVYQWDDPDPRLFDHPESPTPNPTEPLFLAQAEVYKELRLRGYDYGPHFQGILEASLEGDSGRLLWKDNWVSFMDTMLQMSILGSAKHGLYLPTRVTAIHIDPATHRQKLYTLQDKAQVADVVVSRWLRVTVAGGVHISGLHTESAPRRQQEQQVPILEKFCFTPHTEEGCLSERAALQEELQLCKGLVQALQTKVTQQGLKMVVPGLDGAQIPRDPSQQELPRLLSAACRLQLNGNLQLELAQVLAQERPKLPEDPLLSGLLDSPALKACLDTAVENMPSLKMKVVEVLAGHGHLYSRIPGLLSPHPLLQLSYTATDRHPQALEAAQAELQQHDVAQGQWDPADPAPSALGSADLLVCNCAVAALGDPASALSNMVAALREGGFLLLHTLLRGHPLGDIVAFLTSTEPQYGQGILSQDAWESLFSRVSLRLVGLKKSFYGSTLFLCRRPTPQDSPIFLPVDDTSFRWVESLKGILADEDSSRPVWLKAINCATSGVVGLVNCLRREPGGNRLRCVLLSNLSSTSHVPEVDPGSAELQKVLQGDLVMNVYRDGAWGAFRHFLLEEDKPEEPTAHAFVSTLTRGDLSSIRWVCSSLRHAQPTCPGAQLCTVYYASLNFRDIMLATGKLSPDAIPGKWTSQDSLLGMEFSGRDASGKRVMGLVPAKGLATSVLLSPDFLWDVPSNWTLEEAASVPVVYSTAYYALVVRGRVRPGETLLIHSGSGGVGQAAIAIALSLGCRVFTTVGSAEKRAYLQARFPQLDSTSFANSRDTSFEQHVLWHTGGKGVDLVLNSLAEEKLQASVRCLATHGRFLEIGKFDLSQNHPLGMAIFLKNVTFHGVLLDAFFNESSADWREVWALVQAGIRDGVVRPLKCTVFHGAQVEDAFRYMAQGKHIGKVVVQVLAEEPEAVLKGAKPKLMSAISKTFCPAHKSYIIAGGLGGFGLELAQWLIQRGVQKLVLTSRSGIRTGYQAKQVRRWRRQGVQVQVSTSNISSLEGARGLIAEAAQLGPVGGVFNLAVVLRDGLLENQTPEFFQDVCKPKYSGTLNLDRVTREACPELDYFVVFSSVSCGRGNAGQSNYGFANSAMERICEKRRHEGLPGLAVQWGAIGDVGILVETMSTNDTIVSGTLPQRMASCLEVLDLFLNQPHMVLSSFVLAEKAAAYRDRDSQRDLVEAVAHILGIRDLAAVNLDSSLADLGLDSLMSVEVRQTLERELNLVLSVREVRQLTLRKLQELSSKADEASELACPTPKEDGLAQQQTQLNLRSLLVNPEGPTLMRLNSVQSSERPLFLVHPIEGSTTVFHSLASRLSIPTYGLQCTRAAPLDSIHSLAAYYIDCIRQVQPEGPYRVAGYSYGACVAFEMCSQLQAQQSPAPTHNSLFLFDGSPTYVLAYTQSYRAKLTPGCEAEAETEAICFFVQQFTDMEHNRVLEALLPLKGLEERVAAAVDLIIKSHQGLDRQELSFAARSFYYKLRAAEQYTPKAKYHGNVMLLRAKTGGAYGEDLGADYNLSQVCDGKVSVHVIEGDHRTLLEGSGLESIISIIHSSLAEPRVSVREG

By inhibition is commonly meant the relative decrease from the control value, in per cent. For the molecule `COC(=O)N1CC(CN2C(=O)C3(CCOCC3)N=C2c2ccc(-c3ccc4c(cnn4C)c3)cc2)C1` [compound 941, methyl 3-((2-(4-(1-methyl-1H-indazol-5-yl)phenyl)-4-oxo-8-oxa-1,3-diazaspiro[4.5]dec-1-en-3-yl)methyl)azetidine-1-carboxylate], the inhibition at 10 µM is 5% and the IC50 is over 10 µM.
In the case of `CS(=O)(=O)N1CC(CN2C(=O)C3(CCOC3)N=C2c2ccc(-c3ccc4cccnc4c3)cc2)C1` (stereo not drawn) [compound 942, 3-((1-(methylsulfonyl)azetidin-3-yl)methyl)-2-(4-(quinolin7-yl)phenyl)-7-oxa-1,3-diazaspiro[4.4]non-1-en-4-one], the inhibition at 10 µM was 11% and the IC50 is over 10 µM.
The matching figures for `Cn1ncc2cc(-c3ccc(C4=NC5(CCOC5)C(=O)N4CC4CN(S(C)(=O)=O)C4)cc3)ccc21` (stereo not drawn) [compound 944, 2-(4-(1-methyl-1H-indazol-5-yl)phenyl)-3-((1-(methylsulfonyl)azetidin-3-yl)methyl)-7-oxa-1,3-diazaspiro[4.4]non-1-en-4-one]: 5% and over 10 µM.
With `Cn1ncc2cc(-c3ccc(C4=NC5(CCOC5)C(=O)N4CC4CN(C(=O)N5CCCC5)C4)cc3)ccc21` (stereo not drawn) [compound 945, 2-(4-(1-methyl-1H-indazol-5-yl)phenyl)-3-((1-(pyrrolidine-1-carbonyl)azetidin-3-yl)methyl)-7-oxa-1,3-diazaspiro[4.4]non-1-en-4-one], the inhibition at 10 µM turned out to be 38% and the IC50 was over 10 µM.
The matching figures for `COC(=O)N1CC2(C1)N=C(c1ccc(-c3ccc4occc4c3)cc1)N(C[C@@H]1CCN(C(=O)C(F)(F)F)C1)C2=O` [compound 946, (R)-methyl 6-(4-(benzofuran-5-yl)phenyl)-8-oxo-7-((1-(2,2,2-trifluoroacetyl)pyrrolidin-3-yl)methyl)-2,5,7-triazaspiro[3.4]oct-5-ene-2-carboxylate]: 37% and over 10 µM.
The matching figures for `O=C(c1nccs1)N1CC(CN2C(=O)C3(CCOCC3)N=C2c2ccc(-c3ccc4cccnc4c3)cc2)C1` [compound 947, 2-(4-(quinolin-7-yl)phenyl)-3-((1-(thiazole-2-carbonyl)azetidin-3-yl)methyl)-8-oxa-1,3-diazaspiro[4.5]dec-1-ene-4-one]: -14% and over 10 µM.
Take `Cn1cc(-c2ccc(-c3ccc(C4=NC5(CCOCC5)C(=O)N4C[C@@H]4CCN(C(=O)c5nccs5)C4)cc3)cc2)cn1` [compound 948, (R)-2-(4′-(1-methyl-1H-pyrazol-4-yl)-[1,1′-biphenyl]-4-yl)-3-((1-(thiazole-2-carbonyl)pyrrolidin-3-yl)methyl)-8-oxa-1,3-diazaspiro[4.5]dec-1-en-4-one]: the inhibition at 10 µM amounted to 25% and the IC50 is over 10 µM.
The matching figures for `O=C(c1nccs1)N1CC(CN2C(=O)C3(CCOCC3)N=C2c2ccc(-c3ccc4occc4c3)cc2)C1` [compound 949, 2-(4-(benzofuran-5-yl)phenyl)-3-((1-(thiazole-2-carbonyl)azetidin-3-yl)methyl)-8-oxa-1,3-diazaspiro[4.5]dec-1-en-4-one]: -4% and over 10 µM.
For `Cn1cc(-c2ccc(-c3ccc(C4=NC5(CCOC5)C(=O)N4CC4CN(S(C)(=O)=O)C4)cc3)cc2)cn1` (stereo not drawn) [compound 950, 2-(4′-(1-methyl-1H-pyrazol-4-yl)-[1,1′-biphenyl]-4-yl)-3-((1-(methylsulfonyl)azetidin-3-yl)methyl)-7-oxa-1,3-diazaspiro[4.4]non-1-en-4-one], in that order: -1.27% and over 10 µM.
For `CC(C)N1CCC2(CC1)N=C(c1ccc(-c3ccc4cnccc4c3)cc1)N(CC1CN(C(=O)C3CC3)C1)C2=O` [compound 951, 3-((1-(cyclopropanecarbonyl)azetidin-3-yl)methyl)-8-isopropyl-2-(4-(isoquinolin-6-yl)phenyl)-1,3,8-triazaspiro[4.5]dec-1-en-4-one], in that order: 41% and over 10 µM.
Regarding `O=C(C1CC1)N1CC(CN2C(=O)C3(CCN(C(=O)C(F)(F)F)CC3)N=C2c2ccc(-c3ccc4c(ccn4C(=O)C(F)(F)F)c3)cc2)C1` [compound 952, 3-((1-(cyclopropanecarbonyl)azetidin-3-yl)methyl)-8-(2,2,2-trifluoroacetyl)-2-(4-(1-(2,2,2-trifluoroacetyl)-1H-indol-5-yl)phenyl)-1,3,8-triazaspiro[4.5]dec-1-en-4-one], the inhibition at 10 µM was found to be 45% and the IC50 is over 10 µM.
On to `COC(=O)N1CC[C@@H](CN2C(=O)C3(CCOCC3)N=C2c2ccc(-c3ccc4c(cnn4C)c3)cc2)C1` [compound 953, (S)-methyl 3-((2-(4-(1-methyl-1H-indazol-5-yl)phenyl)-4-oxo-8-oxa-1,3-diazaspiro[4.5]dec-1-en-3-yl)methyl)pyrrolidine-1-carboxylate], for which the inhibition at 10 µM is 35% and the IC50 is over 10 µM.
As to `COC(=O)N1CC[C@@H](CN2C(=O)C3(CCOC3)N=C2c2ccc(-c3ccc4occc4c3)cc2)C1` (stereo partly drawn) [compound 954, (3S)-methyl 3-((2-(4-(benzofuran-5-yl)phenyl)-4-oxo-7-oxa-1,3-diazaspiro[4.4]non-1-en-3-yl)methyl)pyrrolidine-1-carboxylate], the inhibition at 10 µM stood at 27% and the IC50 is over 10 µM.
Take `Cn1ncc2cc(-c3ccc(C4=NC5(CCOC5)C(=O)N4C[C@@H]4CCN(C(=O)C(F)(F)F)C4)cc3)ccc21` (stereo partly drawn) [compound 955, 2-(4-(1-methyl-1H-indazol-5-yl)phenyl)-3-(((R)-1-(2,2,2-trifluoroacetyl)pyrrolidin-3-yl)methyl)-7-oxa-1,3-diazaspiro[4.4]non-1-en-4-one]: the inhibition at 10 µM turned out to be 34% and the IC50 was over 10 µM.
For `COC(=O)N1CC2(C1)N=C(c1ccc(-c3ccc4occc4c3)cc1)N(C[C@@H]1CCN(S(C)(=O)=O)C1)C2=O` [compound 956, (S)-methyl 6-(4-(benzofuran-5-yl)phenyl)-7-((1-(methylsulfonyl)pyrrolidin-3-yl)methyl)-8-oxo-2,5,7-triazaspiro[3.4]oct-5-ene-2-carboxylate], in that order: 8% and over 10 µM.
The matching figures for `O=C(c1nccs1)N1CC[C@@H](CN2C(=O)C3(CCOCC3)N=C2c2ccc(-c3ccc4occc4c3)cc2)C1` [compound 958, (R)-2-(4-(benzofuran-5-yl)phenyl)-3-((1-(thiazole-2-carbonyl)pyrrolidin-3-yl)methyl)-8-oxa-1,3-diazaspiro[4.5]dec-1-en-4-one]: -6% and over 10 µM.
For the molecule `Cn1ncc2cc(-c3ccc(C4=NC5(CCOCC5)C(=O)N4C[C@@H]4CCN(C(=O)c5nccs5)C4)cc3)ccc21` [compound 959, (R)-2-(4-(1-methyl-1H-indazol-5-yl)phenyl)-3-((1-(thiazole-2-carbonyl)pyrrolidin-3-yl)methyl)-8-oxa-1,3-diazaspiro[4.5]dec-1-en-4-one], the inhibition at 10 µM was -7% and the IC50 is over 10 µM.
In the case of `CS(=O)(=O)N1CC[C@@H](CN2C(=O)C3(CCOCC3)N=C2c2ccc(-c3ccc4cccnc4c3)cc2)C1` [compound 960], the inhibition at 10 µM is -2% and the IC50 was over 10 µM.

(Values after US10077261B2, “Imidazolin-5-one derivative useful as FASN inhibitors for the treatment of cancer” (Janssen Pharmaceutica NV, priority 2012, dated 2018).)
